Measured values from patent US20150265644A1, “THERAPEUTIC METHODS AND COMPOSITIONS FOR TREATING DIABETES UTILIZING DITERPENOID COMPOUNDS” (Orient Europharma Co., Ltd., priority 2014, published 2015).

How the values were obtained:
[1] = system: human hepatocellular carcinoma cell line Hep3B; experiment: Glycogen content assay in Hep3B cells; assay type: cell-based; details: 30 minutes
Experimental: The C2C12 skeletal muscle cells were cultured in Dulbecco's modified Eagle's medium (DMEM; Gibco/Invitrogen, Carlsbad, Calif.), and the human hepatocellular carcinoma cell line, Hl-ep3B, was cultured in Roswell Park Memorial Institute medium 1640 (RPMI 1640 medium; Gibco/Invitrogen, Carlsbad, Calif.). Cells were cultured at 37° C. in the humidified incubator supplied with 5% CO2. Culture mediums were supplemented with 4.5 mgmL^−1 glucose, penicillin 100 IUmL^−1, streptomycin 100 μgmL^−1 and 10% fetal bovine serum (Gibco/Invitrogen, Carlsbad, Calif.). Only C2C12 cells were then switched to 2% horse serum for 3 days after reaching the 70% confluence. Myotubes formation was achieved after 4 days of incubation, and the cells were used for subsequent experiments. Culture mediums were replaced by serum free DMEM or RPMI for 24 h before experiments (see e.g., procedure described in Sultan et al., 2006).
C2C12 and Hep3B cells were treated with 1 nM insulin, 100 μM metformin, and the assigned concentration of borapetoside A for 30 minutes. To develop the insulin resistance state of cells, C2C12 cells were incubated with IL-6 at 20 ngmL^−1 for 1 hour. Later, the cells were treated with 1 nM insulin, 100 μM metformin, and the assigned concentration of borapetoside A for 30 minutes. After the assigned treatment, cells were washed twice with phosphate buffered saline (PBS). Glycogen content was measured as previously described, with some modifications (see e.g., Savage et al., 2008). The protein concentrations of the cell lysates were determined by using Pierce BCA Protein Assay Kit (Thermo-Scientific, Rockford, Ill.). The glycogen content of each sample was normalized by total protein.

[2] = Plasma glucose after single intraperitoneal injection in mice; assay type: in vivo; details: 60 min; for dose giving significant decrease of plasma glucose level: single i.p. dose; for plasma glucose level: 0.1-10 mgkg^−1 i.p., dose-dependent
Experimental: (§1) The 4-week-old male ICR mice were purchased from the Animal Center of the College of Medicine, National Taiwan University (Taipei, Taiwan) with delicate humane care. This animal study was conducted by following the University ethical guidelines and the ‘Guide for the Care and Use of Laboratory Animals’ published by the US National Institutes of Health (NIH publication no. 85-23, revised 1996). The animal experiments were approved by the Institutional Animal Care and Use Committee (IACUC) of the National Taiwan University (IACUC No. 20110073). Animals were housed in a room at the constant temperature, 22±1° C., with 12 hours light and dark cycles.
(§2) After three days of acclimatization, the mice had free access to a standard rodent chow (normal mice), a standard rodent chow after single 250 mgkg^−1 streptozotocin (STZ) intraperitoneal injection (TIDM mice), and a fat-rich chow diet and fructose-sweetened water (T2DM mice) for 4 weeks. The induction of Type 1 DM was assessed and confirmed when the mice had plasma glucose levels ≧350 mgdL^−1, accompanied with polyuria, hyperphagia and decreased body weight. The induction Type 2 DM in the mice was assessed by measuring fasting plasma glucose levels and confirmed when plasma glucose level was ≧150 mgdL^−1 after the 4-week induction. The animals were assigned randomly into three groups, with seven animals in each group. In group I, the mice were treated with vehicle, 2% DMSO in normal saline, as the negative control. In group II, the mice were intraperitoneally treated with borapetoside A (0.1-10 mgkg^−1). In […], the mice received intraperitoneally metformin (300 mgkg^−1; Sigma Chemical Co., St. Louis, Mo., U.S.A.) or insulin (0.5 IUkg^−1; Insulin Actrapid® HM; Novo Nordisk, Denmark). In the acute study, mice under anesthesia received a single intraperitoneal administration of borapetoside A, negative control, or positive control. In the subacute study, mice received intraperitoneal administrations of borapetoside A, vehicle, or insulin twice a day for seven days.
(§3) Blood samples were collected from the orbital vascular plexus of the mice under anesthesia. Blood samples were then centrifuged at 13000 rpm for 5 min, and the plasma samples were collected and kept on ice prior to the assay. The plasma glucose concentration was measured by Glucose Kit Reagent (Biosystems S.A., Barcelona, Spain) following the manufacturer's instructions, and the insulin levels were estimated using mouse insulin ELISA kit (Mercodia AB, Uppsala, Sweden).

phosphor-AS160 (Thr^642) = experiment: Western blot of liver, phospho-AS160; assay type: in vivo; details: mice with type 1 DM, 10 mgkg^−1 i.p. twice a day for 7 days
Experimental: After three days of acclimatization, the mice had free access to a standard rodent chow (normal mice), a standard rodent chow after single 250 mgkg^−1 streptozotocin (STZ) intraperitoneal injection (TIDM mice), and a fat-rich chow diet and fructose-sweetened water (T2DM mice) for 4 weeks. The induction of Type 1 DM was assessed and confirmed when the mice had plasma glucose levels ≧350 mgdL^−1, accompanied with polyuria, hyperphagia and decreased body weight. The induction Type 2 DM in the mice was assessed by measuring fasting plasma glucose levels and confirmed when plasma glucose level was ≧150 mgdL^−1 after the 4-week induction. […]
Western blot analysis was carried out by known methods with a slight modification. […] After centrifuging the homogenates at 10,000 g for 30 minutes, the protein concentrations were determined by using a BCA Protein Assay Kit (Pierce Biotechnology, Rockford, Ill.). […] The membranes were analysed by using the antibodies against phospho-insulin receptor β (IRβ) (Tyr^1345), phospho-Akt (Ser^473), phosphor-AS160 (Thr^642), AS160 (Cell Signaling Technology, Beverly, Mass.), IRβ, Akt, β-Actin (Santa Cruz Biotechnology, Santa Cruz, Calif.), GLUT2 (Abcam, Cambridge, UK), and PEPCK (a gift from Professor D K Granner), respectively. […] The intensity of each band was quantified with ImageQuant.

[3] = Plasma insulin level before and after treatment in mice; assay type: in vivo
Experimental: as §1, §2, §3

With `C[C@@]12C[C@@H](c3ccoc3)OC(=O)[C@@H]1C[C@@H]1OC(=O)[C@@]3(O)[C@@H](O[C@@H]4O[C@H](CO)[C@@H](O)[C@H](O)[C@H]4O)CC[C@@H]2[C@@]13C` [borapetoside A] the “fold increase of glycogen content” value ([1]; 10^−5 mol/L) was 1.54±0.11 fold, the “fold increase of glycogen content” value ([1]; 10^−6 mol/L) was 1.39±0.12 fold and the “fold increase of glycogen content” value ([1]; 10^−7 mol/L) was 1.46±0.05 fold. For the same molecule, the “dose giving significant decrease of plasma glucose level” value ([2]; mice with type 2 DM) was “higher than 0.3 mgkg^−1”, the plasma glucose level ([2]; normal mice) was “lowered” and the “dose giving significant decrease of plasma glucose level” value ([2]; normal mice) was no less than 1 mgkg^−1. For the same molecule, the plasma glucose level ([2]; type 1 DM mice) was “lowered”, the plasma glucose level ([2]; type 2 DM mice) was “lowered” and the “phosphorylated AS160 in liver” value (phosphor-AS160 (Thr^642)) was “increased”. It also gave a Plasma insulin ([3]; T1DM mice, 0.1 mg kg^−1, after-treatment) of 22.7 ± 0.2 pmol/L, a Plasma insulin ([3]; T1DM mice, 0.1 mg kg^−1, before-treatment) of 22.9 ± 0.1 pmol/L and a Plasma insulin ([3]; T1DM mice, 0.3 mg kg^−1, after-treatment) of 22.7 ± 0.3 pmol/L. The Plasma insulin ([3]; T1DM mice, 0.3 mg kg^−1, before-treatment) was 22.9 ± 0.1 pmol/L, the Plasma insulin ([3]; T1DM mice, 1 mg kg^−1, after-treatment) was 23.0 ± 0.2 pmol/L and the Plasma insulin ([3]; T1DM mice, 1 mg kg^−1, before-treatment) was 23.1 ± 0.2 pmol/L. For the same molecule, the Plasma insulin ([3]; T1DM mice, 3 mg kg^−1, after-treatment) was 23.0 ± 0.0 pmol/L, the Plasma insulin ([3]; T1DM mice, 3 mg kg^−1, before-treatment) was 23.1 ± 0.2 pmol/L and the Plasma insulin ([3]; T1DM mice, 10 mg kg^−1, after-treatment) was 23.0 ± 0.1 pmol/L. For the same molecule, the Plasma insulin ([3]; T1DM mice, 10 mg kg^−1, before-treatment) was 23.1 ± 0.1 pmol/L, the Plasma insulin ([3]; T2DM mice, 0.1 mg kg^−1, after-treatment) was 134.5 ± 9.3 pmol/L and the Plasma insulin ([3]; T2DM mice, 0.1 mg kg^−1, before-treatment) was 140.5 ± 4.1 pmol/L. For the same molecule, the Plasma insulin ([3]; T2DM mice, 0.3 mg kg^−1, after-treatment) was 149.0 ± 9.5 pmol/L, the Plasma insulin ([3]; T2DM mice, 0.3 mg kg^−1, before-treatment) was 133.0 ± 4.2 pmol/L and the Plasma insulin ([3]; T2DM mice, 1 mg kg^−1, after-treatment) was 123.7 ± 9.6 pmol/L. It also gave a Plasma insulin ([3]; T2DM mice, 1 mg kg^−1, before-treatment) of 126.8 ± 5.7 pmol/L, a Plasma insulin ([3]; T2DM mice, 3 mg kg^−1, after-treatment) of 184.3 ± 14.6 pmol/L and a Plasma insulin ([3]; T2DM mice, 3 mg kg^−1, before-treatment) of 138.3 ± 3.6 pmol/L. The Plasma insulin ([3]; T2DM mice, 10 mg kg^−1, after-treatment) was 205.3 ± 22.2 pmol/L, the Plasma insulin ([3]; T2DM mice, 10 mg kg^−1, before-treatment) was 134.9 ± 3.5 pmol/L and the Plasma insulin ([3]; normal mice, 0.1 mg kg^−1, after-treatment) was 68.3 ± 4.4 pmol/L. It also gave a Plasma insulin ([3]; normal mice, 0.1 mg kg^−1, before-treatment) of 61.0 ± 4.6 pmol/L, a Plasma insulin ([3]; normal mice, 0.3 mg kg^−1, after-treatment) of 129.4 ± 22.0 pmol/L and a Plasma insulin ([3]; normal mice, 0.3 mg kg^−1, before-treatment) of 63.4 ± 3.9 pmol/L. For the same molecule, the Plasma insulin ([3]; normal mice, 1 mg kg^−1, after-treatment) was 118.8 ± 10.1 pmol/L, the Plasma insulin ([3]; normal mice, 1 mg kg^−1, before-treatment) was 66.1 ± 5.4 pmol/L and the Plasma insulin ([3]; normal mice, 3 mg kg^−1, after-treatment) was 121.2 ± 14.2 pmol/L. For the same molecule, the Plasma insulin ([3]; normal mice, 3 mg kg^−1, before-treatment) was 64.4 ± 3.6 pmol/L, the Plasma insulin ([3]; normal mice, 10 mg kg^−1, after-treatment) was 108.2 ± 2.9 pmol/L and the Plasma insulin ([3]; normal mice, 10 mg kg^−1, before-treatment) was 68.9 ± 1.3 pmol/L.
